Source: PMC3309038 (Bioorganic & medicinal chemistry letters, 2012)

Assays:
in vitro = in vitro ADME; conditions: rat, microsomes, pH 7.4
[1] = Microsomal stability assay, human liver microsomes; format: in vitro ADME; conditions: pH 7.4
wild-type HIV-1 NL4-3 = experiment: Anti-HIV activity against wild-type HIV-1 NL4-3 infection of TZM-bl cells; format: cell-based; conditions: HIV-1 NL4-3 wild-type
TZM-bl cells = conditions: read-out: CC50, cytotoxicity to 50% of cells, published previously; cited from earlier work

SMILES | microsomal CLint at 1 μM (in vitro) [µL/min/mg] | microsomal CLint at 1 μM [1] [µL/min/mg] | Selectivity index (SI), ratio of CC50/EC50 (wild-type HIV-1 NL4-3) | CC50 (TZM-bl cells) [µM]
Cc1cc(/C=C/C#N)cc(C)c1Oc1cc(Nc2ccc(C#N)cc2)c(N)cc1C(N)=O [Compound 9c] | 57 | 200 |  | 
COC(=O)c1cc(N)c(Nc2ccc(C#N)cc2)cc1Oc1c(C)cc(/C=C/C#N)cc1C [Compound 9a] |  |  | >8465 | 
Cc1cc(/C=C/C#N)cc(C)c1Nc1ccnc(Nc2ccc(C#N)cc2)n1 [Compound 2, rilpivirine] | 57 | 200 |  | 
Cc1cc(/C=C/C#N)cc(C)c1Oc1cc(Nc2ccc(C#N)cc2)c(N)cc1CO [Compound 9e] |  | 230 |  | 
Cc1cc(/C=C/C#N)cc(C)c1Oc1cc(Nc2ccc(C#N)cc2)c(N)cc1[N+](=O)[O-] [Compound 3] | 50 | 150 |  | > 47.1
